pIC50, pKd: −log10 of the molar value. Where two headings read alike, the source gives them in different places.
Columns and labels:
[1] = target: T1, p53 Y220C mutant protein (amino acid residues 94-293) (Homo sapiens, UniProt P04637, Y220C); assay: Surface Plasmon Resonance (SPR) assay, Kd_kinetic; assay type: binding; details: read-out: SPR P53 Y220C KD kinetic
T1 construct: p53 Y220C mutant protein (amino acid residues 94-293)
Procedure, shortened: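 Biacore 8K SPR; 16 or 20 °C; Tris 50 mM pH 7.5, NaCl 100 mM, DTT 1 mM, Brij35 0.01%, Tween-20 0.05%, DMSO 1%. Kd_kinetic by 1:1 fit.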

[2] = target: T1, p53 Y220C mutant protein (amino acid residues 94-293); assay: Thermal Shift Assay (TSA), dTM; assay type: binding; details: for ΔTm at 10 µM: 10 uM compound; for ΔTm at 100 µM: 100 uM compound
Procedure, shortened: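 First, the mutant DNA-binding domain (5 μM) was preincubated 3 hours at 20 °C with compound at 10 μM or 100 μM. Next, the sample was heated from 30 °C to 50 °C at 0.03 °C/second in the presence of Sypro Orange. Finally, TM was obtained from a two-state Boltzmann fit.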

p53 Y220C = p53 Y220C (Homo sapiens, UniProt P04637, Y220C); assay: Luciferase Reporter Assay (Luc), p53 response element, NClH1299 cells with inducible p53 Y220C; assay type: cell-based; details: luciferase reporter, NClH1299 inducible p53 Y220C, 6 hour; for AC50: read-out: Luc P53 Y220C AC50
Procedure, shortened: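 Luciferase activity is measured directly after One-Glo addition and a 5-minute room-temperature shake. Before that, cells plated at 5,000 per well receive doxycycline at 0.5 ug/mL for 24 hours, followed by compound for 6 hours.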

NUGC3 p53 Y220C = assay: Cell Proliferation Assay (CellTiter-Glo, CTG), NUGC3 p53 Y220C; assay type: cell-based; details: Homo sapiens, NUGC-3, 120 h, CellTiter-Glo, 5 days
Procedure, shortened: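 Tet-One inducible p53 Y220C or R273H constructs were stably introduced into NCI-H1299 by lentiviral transduction; NUGC3 was used as is. Cells (250-500 per well) were exposed to compound for 5 days, then CellTiter-Glo was added for 10 min at room temperature and IC50 was calculated from luminescence.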

H1299 p53 Y220C = assay: Cell Proliferation Assay (CellTiter-Glo, CTG), H1299 p53 Y220C (NClH1299-inducible p53 Y220C); assay type: cell-based; details: Homo sapiens, NCI-H1299, 120 h, CellTiter-Glo, 5 days
Procedure, shortened: (§1)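 NClH1299 lines stably transduced with Tet-inducible p53 Y220C or R273H, plus NUGC3, were treated with compound for 5 days at 250-500 cells/well. IC50 derived from CellTiter-Glo luminescent signal after 10 min room-temperature incubation.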

H1299 p53 R273H = assay: Cell Proliferation Assay (CellTiter-Glo, CTG), H1299 p53 R273H (NClH1299-inducible p53 R273H); assay type: cell-based; details: Homo sapiens, NCI-H1299, 120 h, CellTiter-Glo, 5 days
Procedure, shortened: as §1

[3] = thermal shift, read-out: TSA P53 Y220C dTM (10 uM)
[4] = thermal shift, read-out: TSA P53 Y220C dTM (100 uM)
[5] = 10 uM tool compound as positive control
[6] = p53 Y220C, read-out: TSA P53 Y220C dTM
[7] = NClH1299-inducible p53 Y220C cells
[8] = NClH1299-inducible p53 R273H cells

Structure (SMILES)	pKd ([1]; SPR, kinetic KD, p53 Y220C)	ΔTm at 10 µM [2, 3]	ΔTm at 100 µM [2, 4]	Emax (p53 Y220C; [5])	AC50 (p53 Y220C)	pIC50 (NUGC3 p53 Y220C; NUGC3 p53 Y220C)	pIC50 (H1299 p53 Y220C; H1299 p53 Y220C)	pIC50 (H1299 p53 R273H; H1299 p53 R273H)	pKd ([1]; SPR, p53 Y220C)	ΔTm at 10 µM [2, 6]	AC50 (p53 Y220C; AC50)	Emax (p53 Y220C; Emax)	pIC50 (NUGC3 p53 Y220C; NUGC3 cells)	pIC50 (H1299 p53 Y220C; [7])	pIC50 (H1299 p53 R273H; [8])	pKd [1]	ΔTm at 100 µM [2, 6]
CNC(=O)c1ccc(NCC#Cc2nc3c(N[C@@H]4CCN(C)C[C@@H]4F)cccn3c2SC(F)(F)F)c(OCCOC)c1 [Example 104, 4-{[3-(8-{[(3S,4R)-3-fluoro-1-methylpiperidin-4-yl]amino}-3-[(trifluoromethyl)sulfanyl]imidazo[1,2-a]pyridin-2-yl)prop-2-yn-1-yl]amino}-3-(2-methoxyethoxy)-N-methylbenzamide]	> 8.00	≥ 10 °C	≥ 10 °C	80 to 90%	< 750 nM	> 6.12	> 6.12	5.00 to 5.10	–	–	–	–	–	–	–	–	–
CNC(=O)c1ccc(OC)c(NCC#Cc2cc3c(N[C@@H]4CCNC[C@@H]4F)nccn3c2SC(F)(F)F)n1 [Example 340]	–	–	–	–	–	–	–	–	> 8.00	≥ 10 °C	< 750 nM	80 to 90%	> 6.12	> 6.12	≤ 5.00	–	–
CNC(=O)c1cccc(NCC#Cc2nc3c(N[C@@H]4CCN(C)C[C@@H]4F)cccn3c2SC(F)(F)F)c1 [Example 149]	–	≥ 10 °C	≥ 10 °C	80 to 90%	< 750 nM	> 6.12	> 6.12	≤ 5.00	–	–	–	–	–	–	–	> 8.00	–
COc1cc(C(=O)N(C)C)ccc1NCC#Cc1nc2c(N[C@@H]3CCN(C)C[C@@H]3F)cccn2c1SC(F)(F)F [Example 88, 4-{[3-(8-{[(3S,4R)-3-fluoro-1-methylpiperidin-4-yl]amino}-3-[(trifluoromethyl)sulfanyl]imidazo[1,2-a]pyridin-2-yl)prop-2-yn-1-yl]amino}-3-methoxy-N, N-dimethylbenzamide]	> 8.00	≥ 10 °C	≥ 10 °C	80 to 90%	< 750 nM	> 6.12	> 6.12	5.00 to 5.10	–	–	–	–	–	–	–	–	–
COc1cc(C(=O)NC2CC2)ccc1NCC#Cc1nc2c(N[C@@H]3CCN(C)C[C@@H]3F)cccn2c1SC(F)(F)F [Example 86, N-cyclopropyl-4-{[3-(8-{[(3S,4R)-3-fluoro-1-methylpiperidin-4-yl]amino}-3-[(trifluoromethyl)sulfanyl]imidazo[1,2-a]pyridin-2-yl)prop-2-yn-1-yl]amino}-3-methoxybenzamide]	> 8.00	–	≥ 10 °C	80 to 90%	< 750 nM	> 6.12	> 6.12	5.10 to 5.30	–	–	–	–	–	–	–	–	–
CNC(=O)c1ccc(OC)c(NCC#Cc2cc3c(N[C@@H]4CCNC[C@@H]4F)cccn3c2SC(F)(F)F)c1 [Example 125, 3-{[3-(8-{[(3S,4R)-3-fluoropiperidin-4-yl]amino}-3-[(trifluoromethyl)sulfanyl]indolizin-2-yl)prop-2-yn-1-yl]amino}-4-methoxy-N-methylbenzamide]	> 8.00	≥ 10 °C	–	> 90%	< 750 nM	> 6.12	> 6.12	5.10 to 5.30	–	–	–	–	–	–	–	–	–
COc1cc(S(C)(=O)=O)ccc1NCC#Cc1nc2c(NC3CCN(CCS(C)(=O)=O)CC3)cccn2c1CC(F)(F)F [Example 5, N-(2-{3-[(4-methanesulfonyl-2-methoxyphenyl)amino]prop-1-yn-1-yl}-3-(2,2,2-trifluoroethyl)imidazo[1,2-a]pyridin-8-yl)-1-(2-methanesulfonylethyl) piperidin-4-amine]	7.00 to 8.00	5 to 10 °C	5 to 10 °C	80 to 90%	> 3000 nM	5.52 to 5.82	< 5.52	≤ 5.00	–	–	–	–	–	–	–	–	–
CNC(=O)c1ccc(OC)c(NCC#Cc2nc3c(N[C@H]4C[C@@H]5CC[C@H]4N5)cccn3c2SC(F)(F)F)c1 [Example 245]	–	–	–	–	–	–	–	–	> 8.00	5 to 10 °C	1500 to 3000 nM	< 70%	> 6.12	5.52 to 5.82	5.00 to 5.10	–	≥ 10 °C
